In patent US20250034135A1, “ANTI-APOPTOTIC PROTEIN BCL-2 INHIBITOR, PHARMACEUTICAL COMPOSITION AND USES THEREOF” (HANGZHOU HEALZEN THERAPEUTICS CO., LTD., priority 2021, published 2025):

Key:
BCL2 (D103Y) = BCL2 (D103Y) (Homo sapiens (Human), UniProt P10415, D103Y); test: Molecular level activity test of BCL2 (D103Y) (HTRF, binding to Bim peptide); settings: read-out: BCL-2 (D103Y) (nM) (inhibitory activity, IC50)
Procedure: (§1) The detection of the binding ability between anti-apoptotic protein BCL2 (D103Y) and pro-apoptotic protein Bim was performed using Homogeneous Time-Resolved Fluorescence technology. The reaction of this method occurred in a white shallow 384-well plate, with a total reaction volume of 10 μL. Specifically, it included 2 μL of the compound to be tested (2% DMSO), 4 μL His-tagged recombinant protein, and 4 μL Biotin-tagged BIM protein peptide. After 1 hour of reaction, 5 μL of each Anti-His and streptavidin-tagged XL665 antibody diluents diluted with a detection buffer were added. After incubating at room temperature for 4 hours, the values were read using the Envision multifunctional microplate reader to detect the effect of the compound to be tested on the binding ability of BCL2 (D103Y) to BIM protein peptides.

BCL2 = BCL2 (Homo sapiens (Human), UniProt P10415); test: Molecular level activity test of anti-apoptotic protein BCL2 (HTRF, binding to Bim peptide); settings: HTRF, binding of BCL2 to Bim peptide; read-out: BCL2 nM (inhibitory activity, IC50)
Procedure, shortened: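 Compound (2% DMSO) was mixed with His-tagged recombinant BCL2 and biotinylated Bim peptide for 1 h. Detection used anti-His antibody plus streptavidin-XL665 for 4 h at room temperature, read by time-resolved fluorescence.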

BCL2 (G101V) = BCL2 (G101V) (Homo sapiens (Human), UniProt P10415, G101V); test: Molecular level activity test of anti-apoptotic protein BCL2 (G101V) (HTRF, binding to Bim peptide); settings: inhibition of BCL2 (G101V) binding to Bim peptide, read-out: BCL-2 (G101V)
Procedure: as §1, with “BCL2 (G101V)” for “BCL2 (D103Y)”, “[…]” for “5 μL”

RS4; 11 cells = test: Tumor proliferation inhibitory activity test (MTS) on RS4; 11; assay type: cell-based; settings: Homo sapiens, RS4-11, 72 h, 3 days incubation
Procedure: The cell proliferation inhibitory ability of the compounds on RS4; 11 was tested using the MTS method. MTS is a tetrazolium blue salt compound that can be reduced by various dehydrogenases in live cell mitochondria to their respective colored methylzan products. Its color depth is highly correlated with the number of live cells in certain sensitive cell lines within a certain range. RS4; 11, RS4; 11 (BCL-2-G101V) and MOLT-4 tumor cells were cultivated separately and collected, 180 μL of cell suspension was added to each well in a 96-well cell plate, 20 μL of DMSO with a final concentration of 0.2% was added to the control cell wells, 20 μL of gradient diluted compounds were added to cell wells, and the treated cells were incubated in a 5% CO2 incubator at 37° C. for 3 days. After the incubation was completed, the reaction solution was prepared according to the MTS reagent kit, 20 μL was added per well and incubated in a 5% CO2 incubator at 37° C. for 3-4 hours. The absorbance value at 490 nm was read using an enzyme-linked immunosorbent assay (ELISA) plate, and the absorbance value at 690 nm was used as the background value, with OD490 nm-OD690 nm as the final raw data. The formula for calculating the inhibition ratio of compounds was as follows: inhibition ratio=(ODDMSO−ODCompound)/(ODDMSO−ODblank)×100%.

BCL-XL = BCL-XL (Homo sapiens (Human), UniProt Q07817); test: BCL-XL enzyme molecular level activity test (HTRF, binding to BIM peptide); settings: binding of BCL-XL to BIM peptide, values in nM, read-out: BCL-XL inhibitory activity (IC50)
Sequence of BCL-XL (Q07817 whole entry): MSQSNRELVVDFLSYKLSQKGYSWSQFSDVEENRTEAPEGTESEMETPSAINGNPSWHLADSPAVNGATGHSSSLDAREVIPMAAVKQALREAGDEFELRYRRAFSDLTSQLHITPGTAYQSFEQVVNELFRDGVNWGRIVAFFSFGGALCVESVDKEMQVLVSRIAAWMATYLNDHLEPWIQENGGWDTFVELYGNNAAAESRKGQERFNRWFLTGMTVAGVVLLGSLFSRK
Procedure, shortened: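 HTRF binding assay: His-tagged recombinant BCL-XL with biotin-BIM peptide and compound (2% DMSO), 1 h. Anti-His and streptavidin-XL665 detection reagents added, 4 h at room temperature. Excitation 320 nm; 665/615 nm ratio reflects binding, with no-protein background and no-compound full-binding controls.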

SMILES	IC50 (BCL2 (D103Y)) [nM]	IC50 (BCL2) [nM]	IC50 (BCL2 (G101V)) [nM]	IC50 (RS4; 11 cells) [nM]	IC50 (BCL-XL) [nM]
CC(C)c1ccccc1[C@@H]1CN(Cc2ccc(CN(C)C)cc2)CCN1C1CC2(CCN(c3cc(Oc4cnc5[nH]ccc5c4)c(C(=O)NS(=O)(=O)c4ccc(NCC5(F)CCOCC5)c([N+](=O)[O-])c4)cc3F)CC2)C1 [compound 244, (R)-2-((1H-pyrrolo[2,3-b]pyrid-5-yl)oxy)-4-(2-(4-(4-((dimethylamino)methyl)benzyl)-2-(2-isopropylphenyl)piperazin-1-yl)-7-azaspiro[3.5]non-7-yl)-5-fluoro-N-((4-(((4-fluorotetrahydro-2H-pyran-4-yl)methyl)amino)-3-nitrophenyl)sulfonyl)benzamide]	< 10	< 10	< 10	0.5 to 1	> 500
CC(C)c1ccccc1[C@@H]1CN(Cc2ccc(CN3CCCC3)cc2)CCN1C1CC2(CCN(c3cc(Oc4cnc5[nH]ccc5c4)c(C(=O)NS(=O)(=O)c4ccc(NCC5(F)CCOCC5)c([N+](=O)[O-])c4)cc3F)CC2)C1 [compound 245, (R)-2-((1H-pyrrolo[2,3-b]pyrid-5-yl)oxy)-5-fluoro-N-((4-(((4-fluorotetrahydro-2H-pyran-4-yl)methyl)amino)-3-nitrophenyl)sulfonyl)-4-(2-(2-(2-isopropylphenyl)-4-(4-(pyrrolidin-1-ylmethyl)benzyl)piperazin-1-yl)-7-azaspiro[3.5]non-7-yl)benzamide]	< 10	< 10	< 10	0.5 to 1	> 500

The next lines start with the values.

IC50 (BCL2 (D103Y)) [nM]	IC50 (BCL2) [nM]	IC50 (BCL2 (G101V)) [nM]	IC50 (RS4; 11 cells) [nM]	IC50 (BCL-XL) [nM]	SMILES
< 10	< 10	< 10	0.5 to 1	> 500	CNCc1ccc(CN2CCN(C3CC4(CCN(c5cc(Oc6cnc7[nH]ccc7c6)c(C(=O)NS(=O)(=O)c6ccc(NCC7(F)CCOCC7)c([N+](=O)[O-])c6)cc5F)CC4)C3)[C@H](c3ccccc3C(C)C)C2)cc1 [compound 243, (R)-2-((1H-pyrrolo[2,3-b]pyrid-5-yl)oxy)-5-fluoro-N-((4-(((4-fluorotetrahydro-2H-pyran-4-yl)methyl)amino)-3-nitrophenyl)sulfonyl)-4-(2-(2-(2-isopropylphenyl)-4-(4-((methylamino)methyl)benzyl)piperazin-1-yl)-7-azaspiro[3.5]non-7-yl)benzamide]
< 10	< 10	< 10	0.5 to 1	> 500	CNCc1ccc(CN2CCN(C3CC4(CCN(c5cc(Oc6cnc7[nH]ccc7c6)c(C(=O)NS(=O)(=O)c6ccc(NCC7(F)CCOCC7)c([N+](=O)[O-])c6)cc5F)CC4)C3)[C@H](c3ccccc3C(C)C)C2)cc1OC [compound 246, (R)-2-((1H-pyrrolo[2,3-b]pyrid-5-yl)oxy)-5-fluoro-N-((4-(((4-fluorotetrahydro-2H-pyran-4-yl)methyl)amino)-3-nitrophenyl)sulfonyl)-4-(2-(2-(2-isopropylphenyl)-4-(3-methoxy-4-((methylamino)methyl)benzyl)piperazin-1-yl)-7-azaspiro[3.5]non-7-yl)benzamide]
< 10	< 10	< 10	0.5 to 1	> 500	COc1cc(CN2CCN(C3CC4(CCN(c5cc(Oc6cnc7[nH]ccc7c6)c(C(=O)NS(=O)(=O)c6ccc(NCC7(F)CCOCC7)c([N+](=O)[O-])c6)cc5F)CC4)C3)[C@H](c3ccccc3C(C)C)C2)ccc1CN1CCCC1 [compound 248, (R)-2-((1H-pyrrolo[2,3-b]pyrid-5-yl)oxy)-5-fluoro-N-((4-(((4-fluorotetrahydro-2H-pyran-4-yl)methyl)amino)-3-nitrophenyl)sulfonyl)-4-(2-(2-(2-isopropylphenyl)-4-(3-methoxy-4-(pyrrolidin-1-ylmethyl)benzyl)piperazin-1-yl)-7-azaspiro[3.5]non-7-yl)benzamide]
